The subject of one series is RAW 264.7 cells. In words: Cytotoxicity / cell viability by MTT assay in LPS-induced RAW 264.7 cells. In kind it is cell-based. Particulars: for Cytotoxicity: MTT, concentration at which cell viability was lower than 80%, maximum concentration 200 μM. How it is done:
(§1) The compounds were dissolved in DMSO to prepare their stock solutions at a concentration of 50 mM. Then, they were pipetted to mix in the culture medium to make the maximum tested concentration of 200 µM containing 0.4% DMSO. Then, the 200 µM tested solution was further diluted with a culture medium, giving the concentration series of 200, 100, 50, and 25 μM (2-fold dilution). The working concentrations of the test compounds [25, 50, 100, and 200 μM] were used to treat cells.
(§2) Raw264.7 cells were seeded at a density of 5 × 10^4 cells/well in a 96-well plate. The cells were pre-treated with various concentrations of samples for 24 h. Cells were induced with 100 ng/mL LPS for 24 h. The culture supernatant was collected for NO production analysis, and cells were further examined for their viability.
The cell viability was measured by the MTT assay. An MTT solution (1 mg/mL) was added to each well and incubated for 4 h at 37 °C. Then, the MTT solution was removed, and the formazan production was dissolved with DMSO. The absorbance was measured at 570 nm using a microplate reader (BioTeK, Santa Clara, CA, USA).

Series [1] deals with nitric oxide (NO) production in LPS-induced RAW 264.7 cells. In words: Inhibition of nitric oxide production in LPS-induced RAW 264.7 cells (Griess reagent). In kind it is cell-based. Particulars: for IC50: Mus musculus; for nitric oxide inhibition activity compared with indomethacin: in words. Here is the method:
as §1, §2
The NO production was measured using a Griess reagent kit (Invitrogen, Thermo Fisher Scientific, Waltham, MA, USA). Ninety µL of culture media were mixed with 10 µL of Griess reagent and incubated at room temperature for 30 min, and then the NO concentration was measured at 540 nm using the microplate reader. The percentage of NO production was calculated as Equation (1). (1) %NO production = A/B × 100
A: The concentration of the nitric oxide in the cells induced by LPS and with sample pre-treatment [LPS (+), sample (+)].
B: The concentration of nitric oxide in the cells induced by LPS without sample pre-treatment [LPS (+), sample (−)].
The NO inhibitory activity was expressed as half the maximum (IC50) of the inhibitory concentration calculated using GraphPad Prism 9.
(In general: Griess reagent forms a coloured azo dye with nitrite.)

A further series has as its system NO. More on the design: method as in PMID 32163787. The following applies: read-out: NO inhibitory activity IC50; cited from earlier work.
[2] abbreviates: RAW264.7, pre-treated 24 h, then 100 ng/mL LPS 24 h, Mean ± SD from three independent experiments, tested 25-200 μM, read-out: IC50 of NO Inhibition.

Like-named read-outs stand apart in the source and are kept apart here.

Regarding `COc1ccc2c(c1)NC(=O)[C@]2(O)CC#N` [Compound 1, (+)-(S)-2-(3-hydroxy-6-methoxy-2-oxoindolin-3-yl)acetonitrile], the Cytotoxicity in the series on RAW 264.7 cells was above 200 µM. In series [1], the “inhibition of nitric oxide production (in words)” value (from here on “inhibition … (in words)”) is “inhibited nitric oxide production” and the “nitric oxide inhibition activity compared with indomethacin” value is on record as “as strong as indomethacin”. For the same compound, the IC50 in series [1] (setting [2]) came to 186 ± 22.5 µM.
In the series on RAW 264.7 cells, `COc1ccc2c(CC#N)c([S+](C)[O-])[nH]c2c1` (stereo not drawn) [Compound 2, 2-(6-methoxy-2-(methylsulfinyl)-1H-indol-3-yl)acetonitrile] showed a Cytotoxicity above 200 µM. In series [1], the “inhibition … (in words)” value is reported as “inhibited nitric oxide production” and the “nitric oxide inhibition activity compared with indomethacin” value was “as strong as indomethacin”. Moreover, the IC50 in series [1] (setting [2]) is 187 ± 23.1 µM.
Regarding `CO/N=C(/Cc1c[nH]c2cc(OC)ccc12)SC` [Compound 3, methyl (Z)-N-methoxy-2-(6-methoxy-1H-indol-3-yl)ethanimidothioate], in the series on RAW 264.7 cells, the Cytotoxicity entry is listed as “toxicity at 100 μM”.
As to `CO/N=C(\SC)C(=O)c1c[nH]c2cc(OC)ccc12` [Compound 4, methyl (Z)-N-methoxy-2-(6-methoxy-1H-indol-3-yl)-2-oxoethanimidothioate], the Cytotoxicity with RAW 264.7 cells was above 200 µM. For the same compound, the IC50 in series [1] (RAW264.7, above the 200 μM maximum tested concentration, Mean ± SD, read-out: IC50 of NO Inhibition (value in parentheses, above the maximum tested concentration)) was above 200 µM; in series [1] (setting [2]), above 200 µM.
Take `CO/N=C(\C=C1\C(=O)Nc2cc(OC)ccc21)SC` [Compound 5, methyl (E)-N-methoxy-2-[(E)-6-methoxy-2-oxindolin-3-ylidene]ethanimidothiolate]: the Cytotoxicity in the series with RAW 264.7 cells was above 200 µM. Also, in series [1], the “inhibition … (in words)” value is on record as “inhibited nitric oxide production” and the “nitric oxide inhibition activity compared with indomethacin” value is reported as “stronger than indomethacin”. For the same compound, the IC50 in series [1] (setting [2]) came out at 92.2 ± 8.9 µM.
Take `COc1ccc2cc(C3=C(c4c[nH]c5cccc(OC)c45)N=C3SC)[nH]c2c1` [Compound 6, 4-methoxy-3-[3-(6-methoxy-1H-indol-2-yl)-2-(methylthio)azet-4-yl]-1H-indole]: in the series on RAW 264.7 cells (IC50 of NO inhibition could not be determined), the “cytotoxicity (in words)” value is listed as “too cytotoxic”. For the same compound, the Cytotoxicity entry in the series on RAW 264.7 cells is reported as “toxicity at 100 μM”.
Take `COc1ccc2cc(C3=C(c4c[nH]c5cccc(OC)c45)N=C3[S+](C)[O-])[nH]c2c1` (stereo not drawn) [Compound 7, 4-methoxy-3-[3-(6-methoxy-1H-indol-2-yl)-2-(methylsulfinyl)azet-4-yl]-1H-indole]: in the series with RAW 264.7 cells, the Cytotoxicity entry is recorded as “toxicity at 100 μM”. In series [1], the “inhibition … (in words)” value was “inhibited nitric oxide production” and the “nitric oxide inhibition activity compared with indomethacin” value is listed as “stronger than indomethacin”. Also, the IC50 in series [1] (setting [2]) came out at 31.1 ± 1.8 µM.
The matching figures for `COc1cccc2[nH]c3c(C#N)c4c(cc3c12)[nH]c1cc(O)ccc14` [Compound 8, 9-hydroxy-1-methoxy-5,11-dihydroindolo[3,2-b]carbazole-6-carbonitrile]: above 200 µM, “inhibited nitric oxide production”, “stronger than indomethacin” and 56.7 ± 3.8 µM.
`COc1ccc2c(c1)c(CC(=O)O)c(C)n2C(=O)c1ccc(Cl)cc1` [indomethacin, reference compound] displayed a Cytotoxicity in the series with RAW 264.7 cells above 200 µM. In addition, the IC50 in series [1] (setting [2]) came out at 150 ± 16 µM.
On to isatindigoside F, for which, in the series with NO, the IC50 is 70.3 ± 6.9 µM.
isatindigoside G: in the series on NO, the IC50 is 67.3 ± 5.5 µM.

These data come from publication PMC9656735, “Eight Indole Alkaloids from the Roots of Maerua siamensis and Their Nitric Oxide Inhibitory Effects” (Molecules, 2022).
